Experimental data from patent US5801017A, “Production of recombinant factor Xa inhibitor of leech Hirudo medicinalis” (Bio-Technology General Corp., priority 1994, dated 1998).
Values joined by “and” are separate entries in the source; they are usually repeats but may differ in a detail not shown here. Equal values may be shown once. Read-outs that look alike come from different tables or passages of the source.

B1: mature FXaI: recombinant FXaI obtained by enterokinase cleavage of the pFSHI-6 prepeptide, about 15 kD (protein)
chain: YEVIYVDDPCEDSDCEDGNKCSPVTNECDCSPVRCRLHCNFYVKDSNGCETCACEPKCKHKNCPTGHHCNKLTNKCELKKQRRMG

Key:
FXa = experiment: chromogenic FXa inhibitory activity assay (hydrolysis of CHG); type: biochemical, bovine
Protocol: Increasing amounts of FXaI purified on Mono-Q were preincubated for 3 minutes with 2 pmol bovine FXa in a 1 ml cuvette. The initial rate of hydrolysis of the substrate CHG was monitored at 405 nm (see Example 2). Fraction 47 was the peak fraction of a particular purification experiment.
The assay of FXa inhibitory activity is based on the inhibition of the FXa-mediated hydrolysis of the chromogenic substrate methoxycarbonyl-D-cyclohexylglycyl-glycyl-arginyl p-nitroanilide (CHG) as described below.
The appropriate substrate concentration was determined from the molar absorbance which is 8210 at 342 nm. The reaction mixture contains 50 mM Tris-HCl pH 8.2, 5 mM CaCl2, 200 mM NaCl, 0.1% PEG, 40 μM substrate, and approximately 2 nM FXa. The FXa concentration is determined more precisely from the initial (first 20 seconds) rate of CHG hydrolysis at 40 μM in the absence of inhibitor based on the kinetic parameters mentioned above.
Inhibition of the increase in absorbance may be observed in the presence of the FXa inhibitory activity of an FXa inhibitor such as FXaI of the present invention. The inhibitor concentration is the difference in absorbance between the reaction in the presence and absence of inhibitor multiplied by the FXa concentration.
This determination assumes the formation of a 1:1 enzyme-inhibitor complex, and further assumes that the dissociation constant is low enough (i.e., tight binding) to enable essentially total binding of the inhibitor (FXaI) to the enzyme (FXa). In fact, the saturation shape of the dose-response curve (FIG. 3) provides evidence that a finite and not negligible dissociation of the inhibitor-enzyme complex occurs under these conditions. The dose response curve is represented by the degree of inhibition versus FXaI concentration and is further described in Section 5.2.
The degree of dissociation of the FXa-FXaI complex is characterized by the inhibition constant (Ki) and may be determined from the inhibited velocity of the hydrolysis of the chromogenic substrate CHG. […] The Ki of naturally occurring FXa in the chromogenic assay is about 9 nM.
The determination of inhibitor concentration determined by the above method is therefore probably underestimated. It was found useful to define the FXaI concentration as the protein concentration (IC50) required to obtain a constant degree of inhibition, usually 50% and to define the amount causing 50% inhibition under these reaction conditions to be 1 milliunit (mu) or 1 pmol. IC50 is generally higher than Ki, and depending on the type of inhibition, can be shown to depend variously on substrate concentration, Ki, Km and other factors (Segel, I. (1974) "Enzyme Kinetics", Wiley Interscience). In fact, the range of values of IC50 was determined to be about 10-20 nM.
The FXaI activity assay used to determine concentration during purification and characterization was performed in an Elisa Titertek Twin Reader, Type 380 (EF LAB). The final activity measurement of purified protein was also performed in a Phillips (model PU 8720) UV/Vis scanning spectrophotometer.

Plasmin = experiment: inhibition of plasmin (S2251); type: biochemical; conditions: substrate S2251
Protocol: (§1) Inhibition of bovine trypsin by naturally occurring FXaI was calculated following the classical dose response method. Ki values were obtained by plotting the percentage of activity of FXaI (determined by the calorimetric assay described below) against the ratio of the concentrations of inhibitor and enzyme. The calorimetric assay was performed using 80 μM Chromozyme TH (Pentapharm, Switzerland) as substrate in 10 mM Tris-HCl, 10 mM Hepes (pH 7.8), 100 mM NaCl, 0.1% PEG 6000 at 25° C. in the presence of 3.83 or 4.27 nM bovine trypsin. Inhibitor and enzyme were preincubated for 10 min at 25° C. before adding the substrate.
(§2) Plasmin and thrombin were not inhibited by naturally occurring FXaI in a similar assay as that for trypsin. In the case of thrombin, the substrate used was the same as that used for trypsin; in the case of plasmin, S2251 was used as substrate.

thrombin [1] = experiment: thrombin inhibition assay according to Lottenberg et al.; type: biochemical
Protocol: The refolded and dialyzed protein so obtained was assayed for FXa inhibitory activity by the biochemical chromogenic assay described in Example 2. The results are shown in Table 6 as milliunits per mg protein (mu/mg). The amount of protein causing 50% inhibition in an assay mixture containing 2 nM FXa is defined as 1 mu. In addition, the refolded protein was also tested for its inhibitory effect on thrombin, another proteolytic enzyme of the coagulation cascade, which was assayed according to Lottenberg et al. Methods Enzymol. 80:341-361 (1981).

[2] = pharmacokinetic study in mice, ex vivo APTT; set-up: species or system Female Balb/c mice; conditions: for Mean APTT: ex vivo, i.v. 5.25 μg/mouse
Protocol: The clearance of FXaI from the blood of female mice was monitored over a period of 30 minutes by assessing the ex vivo APTT (see FIG. 4) at the time points indicated. The amount of FXaI is expressed as μg FXaI [Macart and Gerbaut, Clin. Chim. Acta 122:93-101 (1982)], determined from a calibration curve consisting of in vitro APTT time versus inhibitor concentration as shown in FIG. 5B.
A preliminary pharmacokinetic experiment was performed in order to assess the clearance rate of FXaI from the circulatory system. Female Balb/c mice (20-25 gm body weight) were injected intravenously with purified FXaI (isoform A; 5.25 μg protein/mouse in 0.2 ml saline). Blood samples were drawn into 1/10 v/v 3.8% citrate at 1, 3, 10 and 30 min after injection. It was possible to obtain only one blood sample from each mouse and therefore each timepoint is from a different mouse. The plasma was then separated and assayed for APTT. The concentration of FXaI was calculated from a calibration curve of APTT versus FXaI concentration which was constructed in vitro by adding various amounts of FXaI to a plasma pool from untreated mice FIG. 5B.

thrombin [3] = experiment: inhibition of thrombin (Chromozyme TH); type: biochemical; conditions: substrate Chromozyme TH
Protocol: as §1, §2

[4] = target: FXa in a prothrombinase complex; experiment: FXa inhibitory activity in the prothrombinase complex (thrombin generation); type: biochemical
Protocol: The inhibitory activity of FXaI may also be assayed by its effect on FXa in a prothrombinase complex. The phospholipid used was rabbit brain cephalin (Sigma). The contents of one vial, suspended in 1 ml 0.15M NaCl were diluted 1:40 in the reaction mixture, i.e. 2.5 μl/100 μl. The concentrations of the other components were: FXa 250 pM, prothrombin 2.67 μM, FVa 4.2 nM and Ca^++ 1 mM in 20 mM Tris-HCl pH 7.4/150 mM NaCl/0.1% polyethylene glycol 6000. Following 10 minutes of preincubation at 37° C., the reaction was initiated by the addition of prothrombin. Aliquots were removed at various time intervals. The reaction was stopped by 10 mM EDTA and aliquots were kept on ice until assayed. The inhibition of FXa by a FXa inhibitor (e.g. FXaI of the present invention) was observed as the effect of FXaI on the generation of thrombin from prothrombin at 37° C. The amount of thrombin generated was assayed using 80 μg of the synthetic thrombin p-nitroanilide substrate S-2238 (KabiVitrum, Sweden) at 23° C.

plasma = experiment: APTT doubling by recombinant mature FXaI; type: biochemical
Protocol: The inhibitory activity of FXaI was also assayed as the increase of the activated partial thromboplastin time (APTT) essentially as described in Spaethe, Haemostasis, AHS/Deutschland GmbH, Munich (1984), using as reagent Actin FS (Dade), which contains ellagic acid for activation of Factors XII and Factor XI, and soy bean phospholipid. Under these conditions, and in the presence of 20 mM CaCl2, only the intrinsic pathway of coagulation is activated.

| Molecule | Inhibitory activity (specific activity), FXa (FXa; 1 mu = amount causing 50% inhibition with 2 nM FXa) [mu/mg] | IC50 (FXa; chromogenic assay, read-out: IC50 (protein concentration for 50% inhibition)) [nM] | inhibition of plasmin (Plasmin) | Inhibitory activity (specific activity), Thrombin (thrombin [1]) [mu/mg] | FXaI calculated from the calibration curve ([2]; 1 min post-injection) [µg] | FXaI calculated from the calibration curve ([2]; 3 min post-injection) | FXaI calculated from the calibration curve ([2]; 10 min post-injection) [µg] | FXaI calculated from the calibration curve ([2]; 30 min post-injection) [µg] | Mean APTT ([2]; 1 min post-injection) [s] | Mean APTT ([2]; 3 min post-injection) | Mean APTT ([2]; 10 min post-injection) [s] | Mean APTT ([2]; 30 min post-injection) | half life of plasma inhibitor activity ([2]; mice, intravenous, 5.25 μg protein/mouse) | inhibition of thrombin (thrombin [3]) | Ki ([4]; 50 pM FXa, 1.35 μM prothrombin, read-out: Ki in prothrombinase complex assay, modified protocol) [nM] | IC50 ([4]; 250 pM FXa, 2.67 μM prothrombin) [nM] | Ki ([4]; 250 pM FXa, 2.67 μM prothrombin, read-out: Ki in prothrombinase complex assay) [nM] | FXa inhibitory specific activity (FXa; after removal of the extension peptide from the cleavage solution by chromatography) [mu/mg protein] | FXa inhibitory specific activity (FXa; following cleavage with enterokinase) | concentration causing doubling of the APTT (plasma) [µg/mL] |
| --- | --- | --- | --- | --- | --- | --- | --- | --- | --- | --- | --- | --- | --- | --- | --- | --- | --- | --- | --- | --- |
| naturally occurring FXaI: FXa inhibitor protein isolated from dilute leech saliva (DLS) of the leech Hirudo medicinalis; 14 kD monomer | 507 | 10 to 20 | not inhibited | < 1 | 0.3150 | 0.243 µg and 0.174 µg | 0.1245 | 0 | 91 | 79 s and 66 s | 55 | 29 s and 30 s | about 7.5 min | not inhibited | 0.12 | 0.19 | 0.072 |  |  |  |
| B1 |  |  |  |  |  |  |  |  |  |  |  |  |  |  |  |  |  | ≤ 8000 | 4000-4500 mu/mg protein | 12.2 |
